These compounds were tested against T1, Kir3.1/3.4 (Rattus norvegicus, UniProt P48548+P63251) (assay: Kir3.1/3.4 Electrophysiology Method (manual whole-cell patch clamp)). Conditions: Electrophysiology Method (TABLE 1).
T1 construct: expressed in transfected cells
T1 sequence (P63251 1-501): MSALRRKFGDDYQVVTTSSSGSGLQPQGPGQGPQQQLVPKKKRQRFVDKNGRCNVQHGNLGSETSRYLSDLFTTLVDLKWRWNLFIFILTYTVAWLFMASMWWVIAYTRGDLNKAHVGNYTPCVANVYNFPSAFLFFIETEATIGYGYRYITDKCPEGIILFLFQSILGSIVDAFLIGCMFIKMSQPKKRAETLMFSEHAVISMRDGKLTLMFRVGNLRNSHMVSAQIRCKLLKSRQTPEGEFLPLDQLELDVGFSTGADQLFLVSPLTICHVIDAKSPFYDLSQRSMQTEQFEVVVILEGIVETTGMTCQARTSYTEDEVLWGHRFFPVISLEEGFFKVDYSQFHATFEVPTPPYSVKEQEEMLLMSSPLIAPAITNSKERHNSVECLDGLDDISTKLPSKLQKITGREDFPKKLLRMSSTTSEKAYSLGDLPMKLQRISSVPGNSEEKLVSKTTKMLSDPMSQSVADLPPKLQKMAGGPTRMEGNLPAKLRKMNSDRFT
T1 sequence (P48548 1-419): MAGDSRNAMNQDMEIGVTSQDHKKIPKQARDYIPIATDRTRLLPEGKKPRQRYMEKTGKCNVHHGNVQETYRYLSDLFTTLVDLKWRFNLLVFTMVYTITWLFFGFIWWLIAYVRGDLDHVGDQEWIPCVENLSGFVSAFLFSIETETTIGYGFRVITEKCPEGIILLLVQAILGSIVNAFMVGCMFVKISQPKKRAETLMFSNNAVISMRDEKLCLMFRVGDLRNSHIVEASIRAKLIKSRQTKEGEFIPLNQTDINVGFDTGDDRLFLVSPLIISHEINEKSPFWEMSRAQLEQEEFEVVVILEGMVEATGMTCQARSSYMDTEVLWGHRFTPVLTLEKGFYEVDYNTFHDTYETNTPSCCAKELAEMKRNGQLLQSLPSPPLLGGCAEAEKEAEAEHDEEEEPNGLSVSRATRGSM
Assay type: cell-based
Outline: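 Percent inhibition is relative to the pre-drug current, both leak-subtracted using a potassium-free bather, taken as the mean current at −140 mV. The protocol was a step to +60 mV, a ramp to −140 mV, then a return to −60 mV holding, every 10 s. Cells were rat Kir3.1/3.4-transfected HEK293 recorded by whole-cell patch clamp.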

IC50 [nM]	Compound
< 500	CN1CCCC1CNCC1CCN(c2ncnc3scc(-c4ccccc4)c23)CC1 (stereo not shown) [Example 84, N-[(1-methylpyrrolidin-2-yl)methyl]-1-[1-(5-phenylthieno[2,3-d]pyrimidin-4-yl)-4-piperidyl]methanamine]
< 500	FC(F)(F)C1CCCN(CC2CCN(c3ncnc4scc(-c5ccccc5)c34)CC2)C1 (stereo not shown) [Example 212]
< 500	CNC(=O)C1CCCN(c2nc(N3CCC(CN(C)C4CCN(C)C4)CC3)c3c(-c4ccccc4)csc3n2)C1 (stereo not shown) [Example 227]
500 to 3000	O=C(NCCN1CCCC1)C1CCN(c2ncnc3scc(-c4ccccc4)c23)C1 (stereo not shown) [Example 270]
< 500	NC(=O)C1CCN(c2nc(N3CCC(COCCN4CCOCC4)CC3)c3c(-c4ccccc4)csc3n2)C1 (stereo not shown) [Example 258]
< 500	CC(=O)N1CCN(CCOCC2CCN(c3ncnc4scc(-c5ccccc5)c34)CC2)CC1 [Example 261]
< 500	CN(C)[C@H]1CCCN(CC2CCN(c3ncnc4scc(-c5ccccc5)c34)CC2)C1 [Example 215]
< 500	CN1CCC(N(C)CC2CCN(c3nc(NCCN4CCCC4)nc4scc(-c5ccccc5)c34)CC2)C1 (stereo not shown) [Example 110]
< 500	CN1CCC(N(C)CC2CCN(c3nc(N4CCCC(C(N)=O)C4)nc4scc(-c5ccccc5)c34)CC2)C1 (stereo not shown) [Example 238]
< 500	O=[N+]([O-])c1ccc(-c2csc3ncnc(N4CCC(COCCN5CCCC5)CC4)c23)cc1 [Example 46, 5-(4-nitrophenyl)-4-[4-(2-pyrrolidin-1-ylethoxymethyl)-1-piperidyl]thieno[2,3-d]pyrimidine]
< 500	c1nc(N2CCC(COCCN3CCCC3)CC2)c2c(-c3ccsc3)csc2n1 [Example 317]
< 500	NC1CCCN(CC2CCN(c3ncnc4scc(-c5ccccc5)c34)CC2)C1 (stereo not shown) [Example 211]
< 500	CN(C)[C@@H]1CCN(CC2CCN(c3nc(N4CCC(C(N)=O)C4)nc4scc(-c5ccccc5)c34)CC2)C1 (stereo partly shown) [Example 236]
500 to 3000	CN1CCN(c2nc(N3CCC(CN(CCO)CCO)CC3)c3c(-c4ccccc4)csc3n2)CC1 [Example 107]
500 to 3000	c1ccc(-c2csc3ncnc(N4CCC(CN5CCC5)CC4)c23)cc1 [Example 73, 4-[4-(azetidin-1-ylmethyl)-1-piperidyl]-5-phenyl-thieno[2,3-d]pyrimidine]
< 500	CC(C)NC(=O)c1sc2ncnc(N3CCC(COCCN4CCCC4)CC3)c2c1-c1cccc(F)c1 [Example 137]
< 500	CCc1c(C)sc2ncnc(N3CCC(COCCC4CCCN4C)CC3)c12 (stereo not shown) [Example 24, 5-ethyl-6-methyl-4-[4-[2-(1-methylpyrrolidin-2-yl)ethoxymethyl]-1-piperidyl]thieno[2,3-d]pyrimidine]
< 500	c1sc2nc(N3CCC(COCCN4CCCC4)CC3)ncc2c1C1CCCCC1 [Example 283]
500 to 3000	CC(C)c1csc2ncnc(N3CC4CC3CC4OCCN3CC4CC3CO4)c12 (stereo not shown) [Example 292, 5-[2-[[2-(5-isopropylthieno[2,3-d]pyrimidin-4-yl)-2-azabicyclo[2.2.1]heptan-5-yl]oxy]ethyl]-2-oxa-5-azabicyclo[2.2.1]heptane]
< 500	CN1CCC(N(C)CC2CCN(c3nc(N4CC(C(N)=O)C4)nc4scc(-c5ccccc5)c34)CC2)C1 (stereo not shown) [Example 237]
500 to 3000	CN1CCN(c2nc(N3CCC(CNCCC4CCCN4C)CC3)c3c(-c4ccccc4)csc3n2)CC1 (stereo not shown) [Example 114]

IC50 [nM]	Compound
< 500	c1ccc(-c2csc3ncnc(N4CCC(CNC5CC5)CC4)c23)cc1 [Example 74, N-[[1-(5-phenylthieno[2,3-d]pyrimidin-4-yl)-4-piperidyl]methyl]cyclopropanamine]
< 500	c1ccc(-c2csc3nc(N4CCC(COCCN5CCCC5)C4)ncc23)cc1 (stereo not shown) [Example 149]
500 to 3000	CN(C)C1CCN(c2ncnc3scc(-c4ccccc4)c23)CC1 [Example 169]
500 to 3000	O=C(NCCN1CCCC1)C1CCN(c2ncnc3scc(-c4ccccc4)c23)CC1 [Example 267]
< 500	O[C@H]1CN(CC2CCN(c3ncnc4scc(-c5ccccc5)c34)CC2)C[C@@H]1N1CCCC1 [Example 67, (3S,4S)-1-[[1-(5-phenylthieno[2,3-d]pyrimidin-4-yl)-4-piperidyl]methyl]-4-pyrrolidin-1-yl-pyrrolidin-3-ol]
< 500	CC(=O)NC1CCN(c2nc(N3CCC(COCCN4CCOCC4)CC3)c3c(-c4ccccc4)csc3n2)C1 (stereo not shown) [Example 259]
< 500	OCC(Cc1ccccc1)NCC1CCN(c2ncnc3scc(-c4ccccc4)c23)CC1 (stereo not shown) [Example 57, 3-phenyl-2-[[1-(5-phenylthieno[2,3-d]pyrimidin-4-yl)-4-piperidyl]methylamino]propan-1-ol]
500 to 3000	CN1CC(NCC2CCN(c3ncnc4scc(-c5ccccc5)c34)CC2)CC1=O (stereo not shown) [Example 91, 1-methyl-4-[[1-(5-phenylthieno[2,3-d]pyrimidin-4-yl)-4-piperidyl]methylamino]pyrrolidin-2-one]
< 500	c1ccc(-c2csc3ncnc(N4CC[C@H](COCCN5CCCC5)C4)c23)cc1 [Example 263]
< 500	CNC(=O)C1(NCC2CCN(c3ncnc4scc(-c5ccccc5)c34)CC2)CCC1 [Example 260]
< 500	FC(F)(F)Oc1cccc(-c2csc3ncnc(N4CCC(COCCN5CCCC5)CC4)c23)c1 [Example 313]
< 500	c1ccc(CNc2sc3ncnc(N4CCC(COCCN5CCCC5)CC4)c3c2-c2ccccc2)cc1 [Example 168, N-benzyl-5-phenyl-4-[4-(2-pyrrolidin-1-ylethoxymethyl)-1-piperidyl]thieno[2,3-d]pyrimidin-6-amine]
500 to 3000	CN(C)C1CCN(c2nc(N3CCC(O)C3)nc3scc(-c4ccccc4)c23)CC1 (stereo not shown) [Example 188]
500 to 3000	Cc1csc2ncnc(N3CCC(COCCC4CCCN4C)CC3)c12 (stereo not shown) [Example 2, 5-methyl-4-[4-[2-(1-methylpyrrolidin-2-yl)ethoxymethyl]-1-piperidyl]thieno[2,3-d]pyrimidine]
< 500	c1ccc(-c2coc3ncnc(N4CCC(COCCN5CCCC5)CC4)c23)cc1 [Example 308, 5-phenyl-4-[4-(2-pyrrolidin-1-ylethoxymethyl)-1-piperidyl]furo[2,3-d]pyrimidine]
< 500	c1ccc(-c2csc3nc(C4CC4)nc(N4CCC(COCCN5CCCC5)CC4)c23)cc1 [Example 360]
500 to 3000	c1cncc(-c2csc3ncnc(N4CCC(COCCN5CCCC5)CC4)c23)c1 [Example 324]
< 500	CN1CCC(N(C)C(=O)C2CCN(c3ncnc4scc(-c5ccccc5)c34)CC2)C1 (stereo not shown) [Example 249]
< 500	CC(C)c1cc2c(N3CCC(COCCC4CCCCN4C)CC3)ncnc2s1 (stereo not shown) [Example 25, 6-isopropyl-4-[4-[2-(1-methyl-2-piperidyl)ethoxymethyl]-1-piperidyl]thieno[2,3-d]pyrimidine]
< 500	CN1CCC(N(C)CC2CCN(c3nc(N(C)CC(N)=O)nc4scc(-c5ccccc5)c34)CC2)C1 (stereo not shown) [Example 121]
< 500	CC(C)(C)NC(C)(C)C#Cc1ncnc2scc(-c3ccccc3)c12 [Example 318]

Compound	IC50 [nM]
CC(C)NCC1CC2CCC(C1)N2c1ncnc2scc(-c3ccccc3)c12 (stereo not shown) [Example 334]	< 500
CN(C)C(=O)c1sc2ncnc(N3C4CCC3CC(N(C)C3CCC3)C4)c2c1-c1ccccc1 (stereo not shown) [Example 347]	< 500
CN(C)C(=O)c1sc2ncnc(N3C4CCC3CC(N3CCCC3)C4)c2c1-c1ccccc1 (stereo not shown) [Example 353, N,N-dimethyl-5-phenyl-4-(3-pyrrolidin-1-yl-8-azabicyclo[3.2.1]octan-8-yl)thieno[2,3-d]pyrimidine-6-carboxamide]	< 500
c1ccc(-c2csc3ncnc(N4C5CCC4CC(CNC4CCC4)C5)c23)cc1 (stereo not shown) [Example 323]	< 500
FC(F)(F)c1nc(N2C3CCC2CC(NC2CCC2)C3)c2c(-c3ccccc3)csc2n1 (stereo not shown) [Example 359]	< 500
COC1CC2CCC(C1)N2c1nc(OC2CC3CC2CN3)nc2scc(-c3ccccc3)c12 (stereo not shown) [Example 348]	< 500
CCc1nc(N2CCC(N(C)C)CC2)c2c(-c3ccccc3)csc2n1 [Example 170]	500 to 3000
NC(=O)C1CCN(c2nc(N3C4CCC3CC(CO)C4)c3c(-c4ccccc4)csc3n2)C1 (stereo not shown) [Example 310]	500 to 3000
COc1ccccc1-c1csc2ncnc(N3C4CCC3CC(NC3CCC3)C4)c12 (stereo not shown) [Example 342]	< 500
FC(F)(F)Oc1ccccc1-c1csc2ncnc(N3C4CCC3CC(NC3CCC3)C4)c12 (stereo not shown) [Example 341]	< 500

— US9290511B2, “Thieno-pyrimidines, useful as potassium channel inhibitors” (XENTION LIMITED, priority 2011, dated 2016)
